For data set [1], the target named is T1, Bile acid receptor (Homo sapiens, UniProt Q96RI1).
T1 sequence (Q96RI1 whole entry): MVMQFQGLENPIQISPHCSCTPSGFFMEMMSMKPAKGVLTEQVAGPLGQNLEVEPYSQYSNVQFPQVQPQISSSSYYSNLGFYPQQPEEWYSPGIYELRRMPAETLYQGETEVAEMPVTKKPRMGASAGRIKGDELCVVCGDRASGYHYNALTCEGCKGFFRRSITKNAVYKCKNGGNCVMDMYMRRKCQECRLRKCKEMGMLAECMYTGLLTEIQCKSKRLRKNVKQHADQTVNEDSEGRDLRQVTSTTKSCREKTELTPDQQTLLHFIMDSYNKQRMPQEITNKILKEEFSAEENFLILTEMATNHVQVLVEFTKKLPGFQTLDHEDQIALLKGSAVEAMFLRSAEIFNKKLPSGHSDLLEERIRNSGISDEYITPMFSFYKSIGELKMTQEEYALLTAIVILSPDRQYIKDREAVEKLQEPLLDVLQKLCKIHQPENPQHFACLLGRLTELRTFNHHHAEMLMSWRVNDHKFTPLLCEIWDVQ
Kind of data set: Partial agonist activity at FXR-LBD-GST (unknown origin) by TR-FRET assay. To be noted: for pEC50: read-out: EC50.

Data set [2] can be described thus: Metabolic stability in mouse liver microsomes assessed as half life. Type of data set: ADME, Microsome. For orientation: Microsomes from liver hold many membrane-bound enzymes, among them those of drug oxidation.
The nature of data set [3]: Metabolic stability in mouse liver microsomes assessed as parent compound remaining after 30 mins. It counts as ADME, Microsome. To be noted: read-out: Stability.
For data set [4], the target named is T1, Bile acid receptor. Kind of data set: Partial agonist activity at human FXR expressed in Huh-7 cells in presence of CDCA by luciferase reporter gene assay. Type of data set: cell-based. (In general: A reporter such as luciferase makes a cellular process visible.)
In data set [5] the target is T2, Bile acid receptor (Homo sapiens) (UniProt Q96RI1).
T2 sequence (whole entry): T1 sequence (Q96RI1 whole entry)
Kind of data set: Partial agonist activity at human FXR expressed in Huh-7 cells in presence of CDCA by luciferase reporter gene assay relative to GW4064. Type of data set: cell-based.

In data set [6] the target is T1, Bile acid receptor. As to the kind of experiment: Antagonist activity at FXR-LBD-GST (unknown origin) in presence of GW4064.

pEC50, pIC50: −log10 of the molar value.

In general, pEC50 refers to −log10 of the EC50, conventionally taken in molar units. On to `CC(C)(C)c1ccc(-c2cccc3c2ncn3Cc2ccc(C(=O)O)cc2)cc1`, for which the negative-log EC50 (pEC50) at Bile acid receptor [1] was 6.12. For `CC(C)(C)c1ccc(C(=O)Nc2cccc3c2ncn3-c2ccc(C(=O)O)cc2)cc1`, the EC50 result on Bile acid receptor [1] was “Not Active”. `CC(C)(C)c1ccc(NC(=O)c2ccc3c(c2)ncn3Cc2ccc(C(=O)O)cc2)cc1`: at Bile acid receptor [1], the EC50 entry is listed as “Not Active”. As for `CC(C)(C)c1ccc(Cn2cnc3c(-c4ccc(C(=O)O)cc4)cccc32)cc1`, at Bile acid receptor [1], the pEC50 was 6.85. In general, half-life refers to how long it takes for the measured level to halve. In the case of `CC(C)(C)c1ccc(-n2cnc3c(NC(=O)c4ccc(C(=O)O)cc4)cccc32)cc1`, in data set [2], the half-life is 24.6 min. Further, the negative-log EC50 (pEC50) at Bile acid receptor [1] is 6.31. The remaining at 0.5 h in data set [3] amounted to 37.9%. Take `CC(C)(C)c1ccc(-c2nc3ccccc3n2Cc2ccc(C(=O)O)cc2)cc1`: the EC50 entry on Bile acid receptor [1] was “Not Active”. With `CC(C)(C)c1ccc(NC(=O)c2ccc3ncn(Cc4ccc(C(=O)O)cc4)c3c2)cc1`, at Bile acid receptor [1], the EC50 entry is “Not Active”.

For the molecule `CC(C)(C)c1ccc(Cn2cnc3c(NC(=O)Cc4ccc(C(=O)O)cc4)cccc32)cc1`, the pEC50 at Bile acid receptor [1] was 6.39. Take `CC(C)(C)c1ccc(Cn2c(-c3ccc(C(=O)O)cc3)nc3ccccc32)cc1`: the EC50 result at Bile acid receptor [1] is listed as “Not Active”. In the case of `CC(C)(C)c1ccc(Cn2cnc3c(NC(=O)c4ccc(C(=O)O)cc4)cccc32)cc1`, the negative-log EC50 (pEC50) on Bile acid receptor [1] is 6.85; on Bile acid receptor [4], 5.66. Moreover, the Activity in data set [5] amounted to 6%. Regarding `CC(C)(C)c1ccc(Cn2cnc3ccc(C(=O)Nc4ccc(C(=O)O)cc4)cc32)cc1`, the EC50 result on Bile acid receptor [1] is given as “Not Active”. As for `CC(C)(C)c1ccc(C(=O)Nc2cccc3c2ncn3Cc2ccc(C(=O)O)cc2)cc1`, the EC50 entry on Bile acid receptor [1] was “Not Active”. The pIC50 is −log10 of the IC50, conventionally taken in molar units. For `CC(C)(C)c1ccc(-n2cnc3c(-c4ccc(C(=O)O)cc4)cccc32)cc1`, the half-life in data set [2] was determined as 25 min. Moreover, the negative-log IC50 (pIC50) at Bile acid receptor [6] is 5.00. Besides, the pEC50 on Bile acid receptor [1] was 6.29. Moreover, the remaining at 0.5 h in data set [3] worked out at 36.9%. Turning to `CC(C)(C)c1ccc(Cn2cnc3cc(C(=O)Nc4ccc(C(=O)O)cc4)ccc32)cc1`, the EC50 result on Bile acid receptor [1] is reported as “Not Active”. For the molecule `CC(C)(C)c1ccc(-c2cccc3c2ncn3-c2ccc(C(=O)O)cc2)cc1`, the EC50 entry on Bile acid receptor [1] is on record as “Not Active”.
